Laboratory results published in ChEMBL document CHEMBL4840345, “Penispidins A-C, Aromatic Sesquiterpenoids from Penicillium virgatum and Their Inhibitory Effects on Hepatic Lipid Accumulation” (J Nat Prod, 2021).
Activity calls are given as the source filed them. The calls are words filed in the database; no cut-off is given here.

What was measured:
[1] = system: HepG2; assay: Cytotoxicity against human HepG2 cells assessed as cell viability at 10 uM measured after 24 hrs by MTT assay; assay type: cell-based; settings: hepg2, 24 h
[2] = system: HepG2; assay: Hypolipidemic activity in human HepG2 cells assessed as inhibition of oleic acid-BSA induced intracellular lipid accumulation at 10 uM after 24 hrs by Oil Red O staining based microscopic assay; assay type: functional, cell-based
[3] = system: HepG2; assay: Hypolipidemic activity in human HepG2 cells assessed as inhibition of oleic acid-BSA induced triglyceride accumulation at 10 uM after 24 hrs; assay type: functional, cell-based

SMILES | Activity [1] | inhibition [2] | Activity [3]
COC(=O)c1ccc2c(c1)O[C@]1(C)CCC[C@@]2(C)C1 | Non-Toxic |  | 
COC(=O)c1ccc2c(c1)OC(C)(C)[C@@H]1CC[C@]21C | Non-Toxic | Active | Active
C[C@@]12CCC[C@@](C)(C1)c1ccc(C(=O)O)cc1O2 | Non-Toxic |  | 
C[C@]12CCC[C@](C)(C1)c1ccc(C(=O)O)cc1O2 | Non-Toxic |  | 
